# Measurements published in patent US12226418B2, “Dosing regimen for the treatment of PI3K related disorders” (Incyte Corporation, priority 2018, dated 2025).
# Key:
# PI3Kδ (p110δ/p85α) = PI3Kδ (p110δ/p85α) (Homo sapiens (Human), UniProt O00329); experiment: PI3Kδ scintillation proximity assay; assay type: biochemical; settings: 20 μM ATP; read-out: PI3Kδ SPA IC50
# Text: [γ-^33P]ATP (10 mCi/mL) was purchased from Perkin-Elmer (Waltham, MA). Lipid kinase substrate, D-myo-Phosphatidylinositol 4,5-bisphosphate (PtdIns(4,5)P2)D (+)-sn-1,2-di-O-octanoylglyceryl, 3-O-phospho linked (PIP2), CAS 204858-53-7, was purchased from Echelon Biosciences (Salt Lake City, UT). PI3Kδ (p110δ/p85α) was purchased from Millipore (Bedford, MA). ATP, MgCl2, DTT, EDTA, MOPS and CHAPS were purchased from Sigma-Aldrich (St. Louis, MO). Wheat Germ Agglutinin (WGA) YSi SPA Scintillation Beads was purchased from GE healthcare life sciences (Piscataway, NJ).
# The kinase reaction was conducted in polystyrene 384-well matrix white plate from Thermo Fisher Scientific in a final volume of 25 μL. Inhibitors were first diluted serially in DMSO and added to the plate wells before the addition of other reaction components. The final concentration of DMSO in the assay was 0.5%. The PI3K assays were carried out at room temperature in 20 mM MOPS, pH 6.7, 10 mM MgCl2, 5 mM DTT and CHAPS 0.03%. Reactions were initiated by the addition of ATP, the final reaction mixture consisted of 20 μM PIP2, 20 μM ATP, 0.2 μCi [γ-^33P]ATP, 4 nM PI3Kδ. Reactions were incubated for 210 min and terminated by the addition of 40 μL SPA beads suspended in quench buffer: 150 mM potassium phosphate pH 8.0, 20% glycerol. 25 mM EDTA, 400 μM ATP. The final concentration of SPA beads was 1.0 mg/mL. After the plate sealing, plates were shaken overnight at room temperature and centrifuged at 1800 rpm for 10 minutes, the radioactivity of the product was determined by scintillation counting on Topcount (Perkin-Elmer). IC50 determination was performed by fitting the curve of percent control activity versus the log of the inhibitor concentration using the GraphPad Prism 3.0 software. IC50 data for the Examples is presented in Table B as determined by Assay A.
# [1] = test system: Pfeiffer cell line (diffuse large B cell lymphoma); experiment: Pfeiffer cell proliferation assay; assay type: cell-based, human; settings: for IC50: Homo sapiens, Pfeiffer, [3H]-thymidine incorporation
# Protocol: Pfeiffer cell line (diffuse large B cell lymphoma) are purchased from ATCC (Manassas, VA) and maintained in the culture medium recommended (RPMI and 10% FBS). To measure the anti-proliferation activity of the compounds, the Pfeiffer cells are plated with the culture medium (2×10^3 cells/well/per 200 μl) into 96-well ultra-low binding plates (Corning, Corning, NY), in the presence or absence of a concentration range of test compounds. After 3-4 days, [^3H]-thymidine (1 μCi/well) (PerkinElmer, Boston, MA) in PBS is then added to the cell culture for an additional 12 hours before the incorporated radioactivity is separated by filtration with water through GF/B filters (Packard Bioscience, Meridenj, CT) and measured by liquid scintillation counting with a TopCount (Packard Bioscience).
# [2] = Clinical pharmacokinetics and food effect, Compound 1C monotherapy; assay type: in vivo
# Protocol: Patients were assessed on Days 1, 8, and 15 of Cycle 1 and Day 1 (±3) of each subsequent treatment cycle.
# [3] = test system: phosphorylated AKT (pAKT; Ser473) in SU-DHL cells; experiment: Ex vivo phosphorylated AKT (pAKT) pharmacodynamic assay in patient whole blood; assay type: cell-based, human; settings: all Compound 1C doses, up to 6 hours post-dose
# Protocol: Compound 1C was dosed once daily and levels of phosphorylated AKT (pAKT; Ser473) were measured by flow cytometry in SU-DHL cells added to patient whole blood after Compound 1C treatment on day 15 of cycle 1.
# (§1) Exploratory endpoints included: duration of response (DOR, duration of time from first response to death or disease progression, whichever occurred first); progression free survival (PFS, duration of time from first study dose to death or disease progression, whichever occurred first); population PK; pharmacodynamic (PD) relationship between PI3Kδ inhibition (as determined by an ex vivo phosphorylated AKT [pAKT] assay).
# [4] = test system: relapsed or refractory B-cell malignancies; experiment: Efficacy, Compound 1C monotherapy; assay type: in vivo, human; settings: for durable response: included QW dosing
# Protocol: The secondary endpoints were efficacy and PK. Efficacy was measured by best overall response rate (ORR), defined as the proportion of patients achieving a partial response (PR) or complete response (CR). Response was evaluated (per investigator's assessment) every 9 weeks based on the Lugano classification of lymphoma response criteria for HL and NHL (Cheson B. D. et al, Journal of Clinical Oncology, 2014; 32(27):3059-3067), the International Working Group on Chronic Lymphocytic Leukemia criteria for chronic lymphocytic leukemia (CLL) (Hallek M. et al, Blood, 2008; 111(12):5446-5456; Cheson B. D. et al, J Clin Oncol, 2012; 30(23):2820-2822)), and the VIth International Workshop on Waldenström Macroglobulinemia response assessment for Waldenström Macroglobulinemia (WM) (Owen R. G. et al, Br J Haematol, 2013; 160(2):171-176). If the patient's response to treatment was assessed by PET and CTI/MRI, then the PET result was used for response endpoints; CT/MRI result was used for an assessment if PET result was not available for the assessment; CT/MRI was used for response endpoints if it was the only form of assessment available for the patient.
# as §1
# Chain of PI3Kδ (p110δ/p85α) (O00329 whole entry): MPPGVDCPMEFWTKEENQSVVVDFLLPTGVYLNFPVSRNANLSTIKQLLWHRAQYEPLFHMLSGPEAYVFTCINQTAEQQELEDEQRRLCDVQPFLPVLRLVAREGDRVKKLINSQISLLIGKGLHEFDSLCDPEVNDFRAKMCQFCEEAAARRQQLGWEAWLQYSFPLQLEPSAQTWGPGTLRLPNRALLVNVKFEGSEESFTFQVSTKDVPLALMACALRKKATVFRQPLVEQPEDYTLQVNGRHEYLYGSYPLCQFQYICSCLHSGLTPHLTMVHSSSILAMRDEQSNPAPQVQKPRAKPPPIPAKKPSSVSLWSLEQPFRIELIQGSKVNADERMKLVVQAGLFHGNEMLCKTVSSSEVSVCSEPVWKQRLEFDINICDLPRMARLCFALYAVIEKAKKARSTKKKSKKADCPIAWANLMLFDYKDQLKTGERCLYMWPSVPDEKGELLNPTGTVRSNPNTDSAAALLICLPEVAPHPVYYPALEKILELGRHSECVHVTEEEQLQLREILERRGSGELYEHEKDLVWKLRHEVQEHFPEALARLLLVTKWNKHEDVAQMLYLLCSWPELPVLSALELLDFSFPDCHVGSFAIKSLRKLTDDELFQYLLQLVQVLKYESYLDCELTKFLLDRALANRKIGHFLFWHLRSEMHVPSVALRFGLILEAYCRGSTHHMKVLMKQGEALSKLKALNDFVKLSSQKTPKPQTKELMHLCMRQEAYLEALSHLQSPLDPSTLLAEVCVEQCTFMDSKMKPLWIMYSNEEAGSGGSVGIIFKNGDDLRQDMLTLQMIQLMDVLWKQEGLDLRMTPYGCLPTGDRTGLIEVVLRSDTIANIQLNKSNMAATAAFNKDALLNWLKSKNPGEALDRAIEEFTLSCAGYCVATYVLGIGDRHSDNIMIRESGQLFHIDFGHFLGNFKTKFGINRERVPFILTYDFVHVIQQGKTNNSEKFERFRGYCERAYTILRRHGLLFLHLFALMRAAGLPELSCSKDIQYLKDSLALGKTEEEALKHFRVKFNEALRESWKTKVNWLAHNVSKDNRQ
# Chain of PI3Kδ (p110δ/p85α) (P27986 whole entry partner): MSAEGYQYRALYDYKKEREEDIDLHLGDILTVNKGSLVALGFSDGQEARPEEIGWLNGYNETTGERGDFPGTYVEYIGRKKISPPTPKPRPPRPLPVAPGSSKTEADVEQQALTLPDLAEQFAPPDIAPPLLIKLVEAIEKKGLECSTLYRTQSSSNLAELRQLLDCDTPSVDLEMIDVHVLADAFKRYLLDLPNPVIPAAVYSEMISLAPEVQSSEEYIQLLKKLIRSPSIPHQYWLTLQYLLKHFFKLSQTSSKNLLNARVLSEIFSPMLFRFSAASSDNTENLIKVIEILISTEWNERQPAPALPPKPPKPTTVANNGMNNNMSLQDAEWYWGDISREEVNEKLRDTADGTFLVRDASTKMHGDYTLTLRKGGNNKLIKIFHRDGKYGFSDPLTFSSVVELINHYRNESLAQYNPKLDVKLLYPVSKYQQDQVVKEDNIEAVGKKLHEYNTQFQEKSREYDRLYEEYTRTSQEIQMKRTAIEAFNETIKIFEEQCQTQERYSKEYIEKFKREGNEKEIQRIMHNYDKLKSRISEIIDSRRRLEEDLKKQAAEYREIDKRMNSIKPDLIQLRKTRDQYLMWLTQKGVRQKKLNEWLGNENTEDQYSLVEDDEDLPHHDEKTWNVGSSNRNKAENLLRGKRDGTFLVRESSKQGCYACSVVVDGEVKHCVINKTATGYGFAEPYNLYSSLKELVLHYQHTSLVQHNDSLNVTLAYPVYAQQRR
compound,measurement,setting,value
"CCOc1c(C(C)n2nc(C)c3c(N)ncnc32)cc(Cl)c(F)c1C1CNC(=O)C1 (single isomer, unassigned) [Example 1A, 4-{3-[1-(4-amino-3-methyl-1H-pyrazolo[3,4-d]pyrimidin-1-yl)ethyl]-5-chloro-2-ethoxy-6-fluorophenyl}pyrrolidin-2-one]",IC50,PI3Kδ (p110δ/p85α),50 to 200 nM
"CCOc1c(C(C)n2nc(C)c3c(N)ncnc32)cc(Cl)c(F)c1C1CNC(=O)C1 (single isomer, unassigned) [Example 1B, 4-{3-[1-(4-amino-3-methyl-1H-pyrazolo[3,4-d]pyrimidin-1-yl)ethyl]-5-chloro-2-ethoxy-6-fluorophenyl}pyrrolidin-2-one]",IC50,[1],≤ 10 nM
"CCOc1c(C(C)n2nc(C)c3c(N)ncnc32)cc(Cl)c(F)c1C1CNC(=O)C1 (single isomer, unassigned) [Example 1C]",sensitivity of Pfeiffer cancer cells to anti-proliferative effects in vitro,[1],sensitive
"CCOc1c(C(C)n2nc(C)c3c(N)ncnc32)cc(Cl)c(F)c1C1CNC(=O)C1 (single isomer, unassigned) [Example 1D, 4-{3-[1-(4-amino-3-methyl-1H-pyrazolo[3,4-d]pyrimidin-1-yl)ethyl]-5-chloro-2-ethoxy-6-fluorophenyl}pyrrolidin-2-one]",IC50,PI3Kδ (p110δ/p85α),50 to 200 nM
"CCOc1c(C(C)n2nc(C)c3c(N)ncnc32)cc(Cl)c(F)c1C1CNC(=O)O1 (single isomer, unassigned) [Example 2A, 5-{3-[1-(4-amino-3-methyl-1H-pyrazolo[3,4-d]pyrimidin-1-yl)ethyl]-5-chloro-2-ethoxy-6-fluorophenyl}-1,3-oxazolidin-2-one]",IC50,PI3Kδ (p110δ/p85α),50 to 200 nM
"CCOc1c(C(C)n2nc(C)c3c(N)ncnc32)cc(Cl)c(F)c1C1CNC(=O)O1 (single isomer, unassigned) [Example 2B, 5-{3-[1-(4-amino-3-methyl-1H-pyrazolo[3,4-d]pyrimidin-1-yl)ethyl]-5-chloro-2-ethoxy-6-fluorophenyl}-1,3-oxazolidin-2-one]",IC50,PI3Kδ (p110δ/p85α),50 to 200 nM
"CCOc1c(C(C)n2nc(C)c3c(N)ncnc32)cc(Cl)c(F)c1C1CNC(=O)O1 (single isomer, unassigned) [Example 2C, 5-{3-[1-(4-amino-3-methyl-1H-pyrazolo[3,4-d]pyrimidin-1-yl)ethyl]-5-chloro-2-ethoxy-6-fluorophenyl}-1,3-oxazolidin-2-one]",IC50,[1],≤ 10 nM
"CCOc1c(C(C)n2nc(C)c3c(N)ncnc32)cc(Cl)c(F)c1C1CNC(=O)O1 (single isomer, unassigned) [Example 2D, 5-{3-[1-(4-amino-3-methyl-1H-pyrazolo[3,4-d]pyrimidin-1-yl)ethyl]-5-chloro-2-ethoxy-6-fluorophenyl}-1,3-oxazolidin-2-one]",IC50,PI3Kδ (p110δ/p85α),> 500 nM
"CCOc1c([C@H](C)n2nc(C)c3c(N)ncnc32)cc(Cl)c(F)c1[C@@H]1CNC(=O)C1.Cl [Compound 1C, (R)-4-(3-((S)-1-(4-amino-3-methyl-1H-pyrazolo[3,4-d]pyrimidin-1-yl)ethyl)-5-chloro-2-ethoxy-6-fluorophenyl)pyrrolidin-2-one hydrochloric acid salt]",Cmax above the IC90 for pAKT inhibition,[2]; 20 mg QD,16 fold
same,Ctrough above the IC90 for pAKT inhibition,[2]; 20 mg QD,2 fold
same,decrease in AUC with high fat meal,"[2]; food effect, 12 patients",10%
same,decrease in Cmax with high fat meal compared with fasted state,"[2]; food effect, 12 patients",42%
same,fed versus fasted geometric mean ratio for AUC,"[2]; food effect, 12 patients",0.90
same,"food effect analysis, timing of meals","[2]; human, in vivo",may be dosed without regard to timing of meals
same,inhibition of pAKT in whole blood,[3],near-maximal inhibition
same,CR/CMR,"[4]; CLL, N 6",0 (0) n (%)
same,Not evaluable/ not assessed,"[4]; CLL, N 6",1 (17) n (%)
same,ORR,"[4]; CLL, N 6",2 (33 [4-78]) n (% [95% CI])
same,PD/PMD,"[4]; CLL, N 6",1 (17) n (%)
same,PR/PMR,"[4]; CLL, N 6",2 (33) n (%)
same,ORR,[4]; DLBCL,30%
same,median duration of response,[4]; DLBCL,13.5 months
same,CR/CMR,"[4]; DLBCL ABC, N 2",0 (0) n (%)
same,Not evaluable/ not assessed,"[4]; DLBCL ABC, N 2",0 n (%)
same,ORR,"[4]; DLBCL ABC, N 2",1 (50 [1-99]) n (% [95% CI])
same,PD/PMD,"[4]; DLBCL ABC, N 2",1 (50) n (%)
same,PR/PMR,"[4]; DLBCL ABC, N 2",1 (50) n (%)
same,CR/CMR,"[4]; DLBCL GCB, N 19",4 (21) n (%)
same,Not evaluable/ not assessed,"[4]; DLBCL GCB, N 19",1 (5) n (%)
same,ORR,"[4]; DLBCL GCB, N 19",6 (32 [13-57]) n (% [95% CI])
same,PD/PMD,"[4]; DLBCL GCB, N 19",9 (47) n (%)
same,PR/PMR,"[4]; DLBCL GCB, N 19",2 (11) n (%)
same,"deep responses (>75% decrease from baseline in target lesion size), patients","[4]; DLBCL, 20 evaluable",10%
same,CR/CMR,"[4]; DLBCL, N 23",4 (17) n (%)
same,Not evaluable/ not assessed,"[4]; DLBCL, N 23",1 (4) n (%)
same,ORR,"[4]; DLBCL, N 23",7 (30 [13-53]) n (% [95% CI])
same,PD/PMD,"[4]; DLBCL, N 23",11 (48) n (%)
same,PR/PMR,"[4]; DLBCL, N 23",3 (13) n (%)
same,durable response,[4]; DLBCL,~19 months
same,ORR,[4]; FL,71%
same,median duration of response,[4]; FL,not reached
same,"deep responses (>75% decrease from baseline in target lesion size), patients","[4]; FL, 14 evaluable",50%
same,CR/CMR,"[4]; FL, N 14",3 (21) n (%)
same,Not evaluable/ not assessed,"[4]; FL, N 14",1 (7) n (%)
same,ORR,"[4]; FL, N 14",10 (71 [42-92]) n (% [95% CI])
same,PD/PMD,"[4]; FL, N 14",2 (14) n (%)
same,PR/PMR,"[4]; FL, N 14",7 (50) n (%)
same,durable response,[4]; FL,~17 months
same,CR/CMR,"[4]; HL, N 10",0 (0) n (%)
same,Not evaluable/ not assessed,"[4]; HL, N 10",1 (10) n (%)
same,ORR,"[4]; HL, N 10",2 (20 [3-56]) n (% [95% CI])
same,PD/PMD,"[4]; HL, N 10",4 (40) n (%)
same,PR/PMR,"[4]; HL, N 10",2 (20) n (%)
same,ORR,[4]; MCL,67%
same,median duration of response,[4]; MCL,not reached
same,"deep responses (>75% decrease from baseline in target lesion size), patients","[4]; MCL, 8 evaluable",38%
same,CR/CMR,"[4]; MCL, N 9",4 (44) n (%)
same,Not evaluable/ not assessed,"[4]; MCL, N 9",1 (11) n (%)
same,ORR,"[4]; MCL, N 9",6 (67 [30-93]) n (% [95% CI])
same,PD/PMD,"[4]; MCL, N 9",0 (0) n (%)
same,PR/PMR,"[4]; MCL, N 9",2 (22) n (%)
same,durable response,[4]; MCL,≥ 14 months
same,ORR,[4]; MZL,78%
same,median duration of response,[4]; MZL,4.4 months
same,"deep responses (>75% decrease from baseline in target lesion size), patients","[4]; MZL, 7 evaluable",57%
same,responses occurring by the first assessment (~9 weeks),"[4]; MZL, FL, MCL, DLBCL",93%
same,CR/CMR,"[4]; MZL, N 9",3 (33) n (%)
same,Not evaluable/ not assessed,"[4]; MZL, N 9",0 n (%)
same,ORR,"[4]; MZL, N 9",7 (78 [40-97]) n (% [95% CI])
same,PD/PMD,"[4]; MZL, N 9",1 (11) n (%)
same,PR/PMR,"[4]; MZL, N 9",4 (44) n (%)
same,durable response,[4]; MZL,~10 months
same,durable responses among patients receiving QW dosing,[4]; QW dosing,> 6 months
same,CR/CMR,"[4]; WM, N 1",0 (0) n (%)
same,Not evaluable/ not assessed,"[4]; WM, N 1",0 n (%)
same,ORR,"[4]; WM, N 1",1 (100 [3-100]) n (% [95% CI])
same,PD/PMD,"[4]; WM, N 1",0 (0) n (%)
same,PR/PMR,"[4]; WM, N 1",1 (100) n (%)
same,patients who achieved an objective response,[4]; all patients with NHL administered 20 mg QD at time of regimen change,11 patients
same,objective responses at the first disease assessment,[4]; of 11 patients with NHL administered 20 mg QD,10
same,objective responses in patients previously treated with ibrutinib,[4]; of the 4 patients with MCL,2 patients
same,"deep responses, patients","[4]; relapsed or refractory B-cell NHL, 10 mg QD to 45 mg QD",> 30%
